Source: patent US12161114B2, “Overpowered ABA receptor agonists” (The Regents of the University of California, priority 2018, dated 2024)
pEC50: −log10 of the molar value.

Legend:
[1] = tested on: pyr1/pyl1, pyl8/pyl9 and abi1C mutants; test: seed germination on receptor mutants and ABA signalling mutant abi1C; format: in vivo, Arabidopsis; conditions: tested at twice the EC50
Experimental: (§1) Prior to selecting a scaffold for optimization we conducted Arabidopsis seed germination assays to establish if the hits obtained are activity in vivo. Germination experiments were performed with surface sterilized wild type Columbia Arabidopsis thaliana seeds and abi1C (the abi1-1 allele isolated in the Columbia ecotype) plated onto 0.7% agar medium containing 1/2-x MS salts, 0.5% sucrose and differing concentrations of the test compounds. After 4d of stratification at 4° C., the plates were transferred to a growth chamber under continuous illumination and evaluated after 4 days.
Methods similar to example 3 were followed.

[2] = tested on: pooled ABA receptors (PYL1, PYL2, PYL4, PYL8, and maize receptor ZmPYLe) with PP2C HAB1; test: pooled receptor activation assay (receptor/ligand-mediated inhibition of PP2C HAB1, 4-methylumbelliferyl phosphate); format: biochemical, Arabidopsis; maize; conditions: tested in duplicate at 20 μM
Description: The angiosperm ABA receptor family is large and contains many receptors that cluster into 3 subfamilies. Multiple analyses have shown that agonists of subfamily III receptors are particularly efficacious as antitranspirants, however pan agonists or other new selective agonists may be valuable for crop enhancement. In principle, a docking hit molecule might interact with any or all ABA receptors, creating a large matrix of possible interactions and screening conditions. To expedite the process of screening for new ABA agonists, we developed a pooled receptor screening assay. To do this we selected phylogenetically diverse ABA receptors (PYL1, PYL2, PYL4, PYL8, and maize receptor ZmPYLe), pooled them, and assayed receptor/ligand-mediated inhibition of the PP2C HAB1. The Arabidopsis receptors and PP2C ΔN-HAB1 used were expressed and purified using previously described expression clones and methods (Okamoto et al.) PYL1, PYL2, PYL4, and PYL8 were expressed as 6×-His tags in pET28; ΔN-HAB1 was expressed as 6×-His tag as a truncated form lacking residues 1-179 in pETM-11. ZmPylE (GRMZM2G165567; ZmPYL8 in (He et al.)) was expressed as an MBP fusion protein in pMal-c and expressed and purified as described previously for PYL9 and PYL1 in reference (Okamoto et al.). Assays were conducted in a buffer containing 100 mM Tris-HCl-pH7.9, 100 mM NaCl, 30 μg/ml BSA, 0.1% 2-mercaptoethanol, 100 nM PYL1 and PYL2, 900 nM PYL4 and PYL8, 200 nM ZmPylE, 1 mM 4-methylumbelliferyl phosphate, and 20 μM test compound. The substrate was added ˜20 minutes after the other components had been mixed and fluorescence data collected after substrate addition using a Tecan Infinite F200 Pro fluorimeter. Control carrier solvent-only wells were included as a reference and %-PP2C activity calculated relative to this control. To validate this assay we tested multiple selective and pan-agonists to ensure that their activity could reliably be detected. […]

[3] = tested on: wild type Columbia Arabidopsis thaliana seeds; test: Arabidopsis seed germination assay; format: in vivo; conditions: Arabidopsis thaliana
Experimental: as §1
To establish if the in vitro potency of Opa translates into improved activity in vivo, we measured the effects of ABA, QB, AMF4, Opa and 2e on Arabidopsis seed germination at a range of concentrations to infer quantitative measures or potency. Methods similar to that described in Example 3 are followed. The percentage of germinated seeds were recorded for each chemical treatment for each concentration in quadruplicate. EC50 values denote the concentrations at which 50% of seeds have been inhibited.

[4] = tested on: panel of recombinant ABA receptors; PP2C HAB1; test: receptor-mediated PP2C inhibition assay, dose response, umbelliferone substrate; format: biochemical, Arabidopsis; conditions: 4 nM to 50 μM dose response
Experimental: Each ligand was tested at concentrations spanning 7 points between 4 nM and 50 μM in triplicate in a reaction buffer containing 100 mM Tris-HCl-pH7.9, 100 mM NaCl, 30 μg/ml BSA, 0.1% 2-mercaptoethanol, 25 nM ΔN-HAB1, 1 mM 4-methylumbelliferyl phosphate, and different recombinant ABA receptors at 50 nM or 300 nM (for PYL9 or PYL11). The substrate was added ˜20 minutes after the other components had been mixed and fluorescence data collected. Control carrier solvent-only wells were included as a reference and %-activity for tested compounds calculated relative to this control. The dose response data (PP2C activity versus agonist concentration) was fit to a log (inhibitor) vs. response-(variable slope) model using non-linear regression to infer the IC50S, using GraphPad Prism 6.0, to yield the IC50 values shown in FIG. 6.
The potency and selectivity of ligands 2b, 2e-f was established by testing their ability to activate multiple ABA receptor subtypes using the fluorescence based phosphasted assay as outlined in example 2 at a range of concentrations (4 nM to 50 μM). In addition, we compared ligand potency to ABA, quinabactin and a recently described fluorinated quinabactin analog AMF4, which is reported to have improved potency in comparison toe quinabactin. To conduct the assays purified recombinant receptors were tested at 50 nM or, in the a cases of PYL9 and PYL11, 300 nM and 25 nM ΔN-HAB1. The PP2C-activity dose response data obtained was fit to a log (inhibitor) vs response-(variable slope) model using non-linear regression to infer the IC50S, using GraphPad Prism 6.0, to yield IC50 values as shown in FIG. 12A. […] Moreover, the installation of a single cyclopropyl group ortho to the nitrile (analog 2e) provided a further boost in potency, dramatically so for all subfamily III receptors, PYL4 and PYL11. […] Furthermore, the installation of a second cyclopropyl substituent (analog 2f) provides an even further boot in activity on subfamily III receptors, which comes at the expense of reduced potency on subfamily I receptors. […] 2f is therefore an unusually overpowered ABA receptor agonist, which we refer to as opabactin (Opa).

PYL2 = target: T1, PYL2 (Arabidopsis thaliana, UniProt O80992); test: receptor-mediated PP2C inhibition assay, pnPP substrate, PYL2; format: biochemical
T1 construct: 6xHis; made in house
T1 sequence (O80992 1-190): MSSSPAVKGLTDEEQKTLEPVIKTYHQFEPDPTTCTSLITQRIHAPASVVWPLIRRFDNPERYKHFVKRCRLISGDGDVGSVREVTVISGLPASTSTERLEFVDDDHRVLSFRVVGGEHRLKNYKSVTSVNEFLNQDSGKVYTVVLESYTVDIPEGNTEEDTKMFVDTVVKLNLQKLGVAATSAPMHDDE
T1 sequence (Q9CAJ0 180-511 partner): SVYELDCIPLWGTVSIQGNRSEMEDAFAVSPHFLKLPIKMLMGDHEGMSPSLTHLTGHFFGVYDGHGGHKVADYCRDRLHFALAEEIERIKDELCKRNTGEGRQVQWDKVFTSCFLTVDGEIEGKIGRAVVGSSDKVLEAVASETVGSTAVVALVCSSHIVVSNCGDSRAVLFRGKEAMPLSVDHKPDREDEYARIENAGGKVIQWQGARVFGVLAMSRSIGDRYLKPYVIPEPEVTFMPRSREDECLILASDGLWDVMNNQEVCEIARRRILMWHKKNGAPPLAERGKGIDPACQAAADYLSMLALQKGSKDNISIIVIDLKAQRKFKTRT
Experimental: The potency and selectivity of ligand 10H4, a relatively potent member of scaffold 2, was characterized in separate experiments using an absorbance-based assay using the colorimetric substrate p-nitrophenyl phosphate (pNPP), as follows. Purified proteins (100 nM receptor, 50 nM HAB1) were pre-incubated in 160 μl assay buffer containing (100 mM Tris-HCl-pH7.9, 100 mM NaCl, 0.3 μg/mL BSA, 0.1% 2-mercaptoethanol, and 1 mM MnCl2) with ligands for 30 minutes at room temperature. Reactions were started by adding 40 μL of 25 mM p-NPP in assay buffer after which absorbance measurements were immediately collected at 405 nm on Tecan plate reader. The concentrations tested spanned 4 nM to 10 μM and the dose response data obtained was fit to a log (inhibitor) vs response-(variable slope) model using non-linear regression to infer the IC50S, using GraphPad Prism, to yield the IC50 values shown in FIG. 7.
8, no. 1, October 2017, p. 1183. • Daszkowska-Golec, Agata. […]

## CCCN1C(=O)CCc2cc(NS(=O)(=O)Cc3c(F)c(F)c(C)c(F)c3F)ccc21 [AMF4]
[1]
  effect on germination in receptor mutant backgrounds: only show diminished activity in the pyr1/pyl1 mutant

## CC1=CC(=O)CC(C)(C)[C@@]1(O)/C=C/C(C)=C\C(=O)O [ABA, Abscisic acid]
[2]
  activity in the pooled receptor assay: active
[3]; read-out: twice the concentrations determined as its EC50 (inhibition of germination)
  pEC50: 6.22
[1]
  effect on germination in receptor mutant backgrounds: clearly reduced in the pyr1/pyl1 and pyl8/pyl9 mutant backgrounds

## O=S(=O)(NCc1ccccn1)c1ccc(Br)c2ccccc12 [pyrabactin]
[2]
  activity in the pooled receptor assay: active

## N#Cc1ccc(CC(=O)NC2(C(=O)O)CCCCC2)cc1 [2b, 1-[2-(4-cyanophenyl)acetamido]cyclohexane-1-carboxylic acid]
[4]
  potency in receptor-mediated PP2C inhibition (in words): dramatically improves activity across all receptors tested

## CS(=O)(=O)NC(=O)C1(NC(=O)Cc2ccc(C#N)c(C3CC3)c2)CCCCC1 [2r]
PYL2
  activity on PYL2 (in words): modestly activity on PYL2

## N#Cc1ccc(CC(=O)NC2(C(=O)O)CCCCC2)cc1C1CC1 [2e, 1-[2-(4-cyano-3-cyclopropylphenyl)acetamido]cyclohexane-1-carboxylic acid]
[4]
  potency in receptor-mediated PP2C inhibition (in words): high potency across all receptors tested
[3]; printed value is twice the EC50, used as test concentration on mutants, read-out: twice the concentrations determined as its EC50 (inhibition of germination) (converted)
  test concentration (twice the EC50 for germination inhibition): 220 nM
[1]
  effect on germination in receptor mutant backgrounds: clearly reduced in the pyr1/pyl1 and pyl8/pyl9 mutant backgrounds

## CCCN1C(=O)CCc2cc(NS(=O)(=O)Cc3ccc(C)cc3)ccc21 [quinabactin]
[2]
  activity in the pooled receptor assay: active
[1]
  effect on germination in receptor mutant backgrounds: only show diminished activity in the pyr1/pyl1 mutant
